What was measured:
Assay in all cases: radiometric kinase profiling (33 PanQinase)
Assay type in all cases: biochemical
CAMKK1 = target: T1, CAMKK1 (Homo sapiens, UniProt Q8N5S9); details: read-out: Inhibitory effect (%) CAMKK1
T1 construct: purchased Proqinase, Germany
In short: (§1)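 Enzyme/substrate mixes were incubated with [γ-33P]-ATP and compound (added as a 0.1 μM solution in 10% DMSO) at 30 °C for 60 min, then stopped with H3PO4 and washed with NaCl. 33P incorporation was scintillation-counted, and residual activity (%) was normalized to untreated control and background.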

MET = target: T2, MET (Homo sapiens, UniProt P08581); details: read-out: Inhibitory effect (%) MET
T2 construct: purchased ProQinase (33PanQinase Activity Assay)
In short: as §1

MAPK3 = target: T3, MAPK3 (Homo sapiens, UniProt P27361); details: read-out: Inhibitory effect (%) MAPK3
T3 construct: purchased ProQinase (33PanQinase Activity Assay)
In short: as §1

MAP2K1 = target: T4, MAP2K1 (Homo sapiens, UniProt Q02750); details: read-out: Inhibitory effect (%) MAP2K1
T4 construct: purchased ProQinase (33PanQinase Activity Assay)
In short: as §1

CLK2 = target: T5, CLK2 (Homo sapiens, UniProt P49760); details: read-out: Inhibitory effect (%) CLK2
T5 construct: purchased Proqinase, Germany
In short: as §1

DCLK2 = target: T6, DCLK2 (Homo sapiens, UniProt Q8N568); details: read-out: Inhibitory effect (%) DCLK2
T6 construct: purchased Proqinase, Germany
T6 sequence (Q8N568 1-766): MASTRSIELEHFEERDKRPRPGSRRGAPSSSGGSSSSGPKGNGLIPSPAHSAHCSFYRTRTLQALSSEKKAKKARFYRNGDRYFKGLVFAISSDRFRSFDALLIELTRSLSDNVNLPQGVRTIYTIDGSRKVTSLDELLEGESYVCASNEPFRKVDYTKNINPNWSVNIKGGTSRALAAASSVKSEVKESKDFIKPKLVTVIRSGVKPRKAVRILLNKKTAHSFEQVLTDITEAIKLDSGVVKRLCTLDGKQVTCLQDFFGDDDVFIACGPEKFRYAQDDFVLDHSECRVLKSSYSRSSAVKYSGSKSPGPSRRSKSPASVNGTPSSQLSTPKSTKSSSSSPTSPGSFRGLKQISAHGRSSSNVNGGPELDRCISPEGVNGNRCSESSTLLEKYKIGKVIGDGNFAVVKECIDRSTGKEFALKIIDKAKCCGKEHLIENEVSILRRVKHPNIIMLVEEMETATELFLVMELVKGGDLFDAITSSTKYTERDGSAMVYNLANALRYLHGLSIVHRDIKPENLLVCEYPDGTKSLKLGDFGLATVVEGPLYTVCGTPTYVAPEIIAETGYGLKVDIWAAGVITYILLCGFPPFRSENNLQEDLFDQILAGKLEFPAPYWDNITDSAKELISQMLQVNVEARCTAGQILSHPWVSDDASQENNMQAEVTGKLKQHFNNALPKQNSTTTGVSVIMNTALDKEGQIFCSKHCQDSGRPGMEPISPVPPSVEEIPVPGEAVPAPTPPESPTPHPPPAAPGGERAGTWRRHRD
In short: as §1

HIPK1 = target: T7, HIPK1 (Homo sapiens, UniProt Q86Z02); details: read-out: Inhibitory effect (%) HIPK1
T7 construct: purchased ProQinase (33PanQinase Activity Assay)
In short: as §1

IRAK4 = target: T8, IRAK4 (Homo sapiens, UniProt Q9NWZ3); details: read-out: Inhibitory effect (%) IRAK4
T8 construct: purchased ProQinase (33PanQinase Activity Assay)
T8 sequence (Q9NWZ3 1-460): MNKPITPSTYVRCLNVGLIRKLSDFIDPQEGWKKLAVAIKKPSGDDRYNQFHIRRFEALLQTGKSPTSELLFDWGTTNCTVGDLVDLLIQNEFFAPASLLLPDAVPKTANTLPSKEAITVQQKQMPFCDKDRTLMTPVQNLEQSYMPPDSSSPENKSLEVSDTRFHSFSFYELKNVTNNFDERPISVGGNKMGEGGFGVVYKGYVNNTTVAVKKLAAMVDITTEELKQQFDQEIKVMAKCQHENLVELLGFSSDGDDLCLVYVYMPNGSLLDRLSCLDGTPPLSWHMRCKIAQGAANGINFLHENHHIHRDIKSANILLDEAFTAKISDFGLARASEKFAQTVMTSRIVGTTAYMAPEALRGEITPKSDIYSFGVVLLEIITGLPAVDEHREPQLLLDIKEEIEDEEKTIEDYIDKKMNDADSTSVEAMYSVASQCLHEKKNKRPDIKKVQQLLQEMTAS
In short: as §1

AKT1 = target: T9, AKT1 (Homo sapiens, UniProt P31749); details: read-out: Inhibitory effect (%) AKT1
T9 construct: purchased Proqinase, Germany
In short: as §1

PDK1 = target: T10, PDK1 (Homo sapiens, UniProt O15530); details: read-out: Inhibitory effect (%) PDK1
T10 construct: purchased ProQinase (33PanQinase Activity Assay)
T10 sequence (O15530 1-556): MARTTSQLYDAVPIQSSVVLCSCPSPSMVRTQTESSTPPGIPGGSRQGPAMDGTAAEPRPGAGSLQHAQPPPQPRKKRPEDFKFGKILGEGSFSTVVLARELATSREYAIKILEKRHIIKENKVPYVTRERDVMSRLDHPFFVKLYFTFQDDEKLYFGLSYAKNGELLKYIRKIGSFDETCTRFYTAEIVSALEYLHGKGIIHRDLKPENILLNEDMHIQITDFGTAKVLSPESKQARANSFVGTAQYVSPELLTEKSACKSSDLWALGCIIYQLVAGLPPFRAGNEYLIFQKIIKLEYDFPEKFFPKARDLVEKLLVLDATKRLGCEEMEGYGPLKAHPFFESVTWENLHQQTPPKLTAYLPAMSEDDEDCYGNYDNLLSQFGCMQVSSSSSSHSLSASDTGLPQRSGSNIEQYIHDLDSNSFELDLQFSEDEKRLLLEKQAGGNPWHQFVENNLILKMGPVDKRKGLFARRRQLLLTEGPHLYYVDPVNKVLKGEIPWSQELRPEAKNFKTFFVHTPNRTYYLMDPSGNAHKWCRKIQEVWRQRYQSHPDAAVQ
In short: as §1

DYRK1A = target: T11, DYRK1A (Homo sapiens, UniProt Q13627); details: read-out: Inhibitory effect (%) DYRK1A
T11 construct: purchased Proqinase, Germany
In short: as §1

T7 sequence (Q86Z02 whole entry): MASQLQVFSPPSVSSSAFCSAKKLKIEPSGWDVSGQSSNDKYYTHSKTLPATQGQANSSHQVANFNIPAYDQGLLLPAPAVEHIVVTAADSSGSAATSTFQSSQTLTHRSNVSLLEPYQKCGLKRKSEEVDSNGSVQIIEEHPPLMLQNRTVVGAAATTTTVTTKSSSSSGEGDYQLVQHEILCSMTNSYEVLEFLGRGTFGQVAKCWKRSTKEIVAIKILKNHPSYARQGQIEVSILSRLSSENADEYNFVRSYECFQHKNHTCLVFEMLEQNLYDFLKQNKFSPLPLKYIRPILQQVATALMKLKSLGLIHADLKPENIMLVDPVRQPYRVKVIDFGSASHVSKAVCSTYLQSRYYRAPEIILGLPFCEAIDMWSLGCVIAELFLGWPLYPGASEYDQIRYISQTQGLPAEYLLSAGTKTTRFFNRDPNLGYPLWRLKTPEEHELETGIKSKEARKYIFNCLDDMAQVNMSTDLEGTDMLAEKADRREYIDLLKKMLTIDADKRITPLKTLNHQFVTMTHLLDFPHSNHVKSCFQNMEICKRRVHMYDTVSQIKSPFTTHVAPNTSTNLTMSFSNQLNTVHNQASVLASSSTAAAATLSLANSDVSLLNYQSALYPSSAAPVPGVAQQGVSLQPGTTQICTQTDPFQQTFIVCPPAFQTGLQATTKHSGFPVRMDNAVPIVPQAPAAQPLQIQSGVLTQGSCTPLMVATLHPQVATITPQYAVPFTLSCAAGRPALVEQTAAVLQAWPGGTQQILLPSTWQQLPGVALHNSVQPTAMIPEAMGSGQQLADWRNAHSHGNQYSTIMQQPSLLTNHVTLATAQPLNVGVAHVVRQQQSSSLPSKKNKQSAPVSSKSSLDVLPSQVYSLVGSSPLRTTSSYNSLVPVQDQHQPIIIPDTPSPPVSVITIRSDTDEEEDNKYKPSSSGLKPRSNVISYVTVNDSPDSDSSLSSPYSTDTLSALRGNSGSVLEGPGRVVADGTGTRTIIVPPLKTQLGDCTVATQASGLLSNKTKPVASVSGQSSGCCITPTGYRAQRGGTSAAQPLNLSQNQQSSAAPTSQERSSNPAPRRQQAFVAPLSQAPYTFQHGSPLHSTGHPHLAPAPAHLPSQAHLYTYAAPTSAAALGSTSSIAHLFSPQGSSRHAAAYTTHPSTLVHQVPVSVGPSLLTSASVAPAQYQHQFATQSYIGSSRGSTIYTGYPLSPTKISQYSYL
T1 sequence (Q8N5S9 whole entry): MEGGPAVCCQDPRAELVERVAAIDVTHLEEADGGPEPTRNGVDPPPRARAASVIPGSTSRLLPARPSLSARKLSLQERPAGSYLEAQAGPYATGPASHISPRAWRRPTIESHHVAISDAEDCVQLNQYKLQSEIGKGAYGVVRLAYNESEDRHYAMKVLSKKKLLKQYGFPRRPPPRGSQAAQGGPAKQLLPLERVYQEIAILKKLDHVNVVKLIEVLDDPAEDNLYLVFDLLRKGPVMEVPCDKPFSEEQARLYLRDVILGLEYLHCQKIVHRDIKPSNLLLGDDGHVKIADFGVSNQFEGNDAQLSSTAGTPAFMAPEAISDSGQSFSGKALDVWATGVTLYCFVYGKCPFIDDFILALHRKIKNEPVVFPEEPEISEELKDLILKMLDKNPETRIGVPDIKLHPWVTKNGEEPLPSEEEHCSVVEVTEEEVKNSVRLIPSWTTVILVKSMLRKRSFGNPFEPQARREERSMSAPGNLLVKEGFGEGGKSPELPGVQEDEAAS
T5 sequence (P49760 whole entry): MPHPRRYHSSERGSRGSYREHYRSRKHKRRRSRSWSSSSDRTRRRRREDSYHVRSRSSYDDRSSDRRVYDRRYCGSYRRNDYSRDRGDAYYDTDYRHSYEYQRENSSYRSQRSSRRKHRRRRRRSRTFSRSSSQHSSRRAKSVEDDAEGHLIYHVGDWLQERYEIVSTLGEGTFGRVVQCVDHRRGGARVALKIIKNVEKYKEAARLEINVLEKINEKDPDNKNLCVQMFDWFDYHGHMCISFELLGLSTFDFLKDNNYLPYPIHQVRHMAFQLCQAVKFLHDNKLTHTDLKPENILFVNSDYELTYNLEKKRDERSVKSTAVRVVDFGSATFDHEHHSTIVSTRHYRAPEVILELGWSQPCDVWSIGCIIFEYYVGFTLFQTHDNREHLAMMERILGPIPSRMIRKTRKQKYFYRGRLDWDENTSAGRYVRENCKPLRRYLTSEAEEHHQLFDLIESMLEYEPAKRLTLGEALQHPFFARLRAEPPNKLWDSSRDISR
T2 sequence (P08581 25-1390): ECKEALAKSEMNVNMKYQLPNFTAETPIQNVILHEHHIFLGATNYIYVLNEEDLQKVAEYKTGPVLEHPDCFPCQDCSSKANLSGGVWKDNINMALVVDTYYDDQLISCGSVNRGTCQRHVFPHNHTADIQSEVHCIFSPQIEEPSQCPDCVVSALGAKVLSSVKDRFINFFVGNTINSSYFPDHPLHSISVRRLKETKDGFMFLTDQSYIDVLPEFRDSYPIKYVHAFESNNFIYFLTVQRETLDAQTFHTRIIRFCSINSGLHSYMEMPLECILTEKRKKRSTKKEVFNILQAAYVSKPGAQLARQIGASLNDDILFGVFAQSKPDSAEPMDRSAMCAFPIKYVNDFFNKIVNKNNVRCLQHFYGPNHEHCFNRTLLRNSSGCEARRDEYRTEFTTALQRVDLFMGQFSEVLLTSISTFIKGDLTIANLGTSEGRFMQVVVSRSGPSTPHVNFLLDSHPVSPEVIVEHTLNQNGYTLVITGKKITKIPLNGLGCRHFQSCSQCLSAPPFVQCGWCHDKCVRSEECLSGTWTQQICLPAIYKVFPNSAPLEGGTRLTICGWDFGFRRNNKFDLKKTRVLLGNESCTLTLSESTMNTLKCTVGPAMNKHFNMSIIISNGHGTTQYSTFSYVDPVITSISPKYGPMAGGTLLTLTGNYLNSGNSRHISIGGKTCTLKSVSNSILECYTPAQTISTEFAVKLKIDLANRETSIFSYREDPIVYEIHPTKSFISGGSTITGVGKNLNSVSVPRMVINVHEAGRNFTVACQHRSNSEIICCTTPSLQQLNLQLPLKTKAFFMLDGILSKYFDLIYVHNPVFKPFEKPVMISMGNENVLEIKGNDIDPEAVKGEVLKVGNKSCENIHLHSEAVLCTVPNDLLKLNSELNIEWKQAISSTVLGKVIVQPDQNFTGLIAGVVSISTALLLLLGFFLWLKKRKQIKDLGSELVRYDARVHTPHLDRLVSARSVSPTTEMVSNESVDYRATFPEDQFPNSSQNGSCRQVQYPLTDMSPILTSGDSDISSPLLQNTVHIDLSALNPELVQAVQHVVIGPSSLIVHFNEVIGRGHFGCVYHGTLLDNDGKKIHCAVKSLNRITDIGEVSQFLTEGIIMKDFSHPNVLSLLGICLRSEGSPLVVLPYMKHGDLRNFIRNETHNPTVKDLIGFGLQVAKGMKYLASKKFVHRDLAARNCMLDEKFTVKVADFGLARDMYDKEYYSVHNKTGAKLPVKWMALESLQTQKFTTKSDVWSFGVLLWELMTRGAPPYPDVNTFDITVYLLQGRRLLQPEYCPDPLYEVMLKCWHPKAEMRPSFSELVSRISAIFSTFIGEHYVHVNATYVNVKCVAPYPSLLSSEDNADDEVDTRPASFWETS
T4 sequence (Q02750 whole entry): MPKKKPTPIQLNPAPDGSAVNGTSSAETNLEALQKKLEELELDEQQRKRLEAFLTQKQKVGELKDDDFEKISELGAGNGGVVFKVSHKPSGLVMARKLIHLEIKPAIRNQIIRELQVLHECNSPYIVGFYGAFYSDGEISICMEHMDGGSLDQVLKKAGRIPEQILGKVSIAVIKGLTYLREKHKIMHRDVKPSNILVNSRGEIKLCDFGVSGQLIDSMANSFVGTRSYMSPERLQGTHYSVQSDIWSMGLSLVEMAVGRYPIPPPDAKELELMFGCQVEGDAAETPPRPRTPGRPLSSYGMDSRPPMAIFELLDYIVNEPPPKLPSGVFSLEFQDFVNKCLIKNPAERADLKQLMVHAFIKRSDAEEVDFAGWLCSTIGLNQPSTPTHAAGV
T3 sequence (P27361 whole entry): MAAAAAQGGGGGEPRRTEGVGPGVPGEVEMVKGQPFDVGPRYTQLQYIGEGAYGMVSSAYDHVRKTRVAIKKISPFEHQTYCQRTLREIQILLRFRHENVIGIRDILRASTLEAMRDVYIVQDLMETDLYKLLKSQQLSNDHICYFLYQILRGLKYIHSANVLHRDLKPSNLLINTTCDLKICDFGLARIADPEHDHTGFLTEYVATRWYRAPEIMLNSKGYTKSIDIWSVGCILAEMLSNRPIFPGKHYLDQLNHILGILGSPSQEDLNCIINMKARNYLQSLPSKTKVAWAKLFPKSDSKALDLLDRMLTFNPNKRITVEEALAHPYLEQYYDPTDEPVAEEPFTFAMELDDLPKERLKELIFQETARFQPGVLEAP
T9 sequence (P31749 whole entry): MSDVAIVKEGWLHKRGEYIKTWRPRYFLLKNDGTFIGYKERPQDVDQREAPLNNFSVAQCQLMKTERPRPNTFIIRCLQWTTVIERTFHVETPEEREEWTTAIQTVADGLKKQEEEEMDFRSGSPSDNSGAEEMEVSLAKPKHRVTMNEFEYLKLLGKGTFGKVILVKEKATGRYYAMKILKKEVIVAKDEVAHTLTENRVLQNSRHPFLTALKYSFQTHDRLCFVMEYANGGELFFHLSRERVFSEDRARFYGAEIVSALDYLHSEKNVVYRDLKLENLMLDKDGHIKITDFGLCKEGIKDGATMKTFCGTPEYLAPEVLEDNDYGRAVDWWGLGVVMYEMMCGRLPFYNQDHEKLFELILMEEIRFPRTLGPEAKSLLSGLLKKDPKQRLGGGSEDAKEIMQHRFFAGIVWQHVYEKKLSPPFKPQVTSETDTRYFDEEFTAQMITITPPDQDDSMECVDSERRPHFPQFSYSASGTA

SMILES	inhibition at 0.1 µM (CAMKK1)	inhibition at 0.1 µM (MET)	inhibition at 0.1 µM (MAPK3)	inhibition at 0.1 µM (MAP2K1)	inhibition at 0.1 µM (CLK2)	inhibition at 0.1 µM (DCLK2)	inhibition at 0.1 µM (HIPK1)	inhibition at 0.1 µM (IRAK4)	inhibition at 0.1 µM (AKT1)	inhibition at 0.1 µM (PDK1)	inhibition at 0.1 µM (DYRK1A)
c1ccc2c(-c3cnn4cc(-c5ccc(N6CCNCC6)cc5)cnc34)ccnc2c1 [LDN-193189, reference compound]	0.77%	1.47%	-8.08%	11.1%	34.2%	9.12%	-13.4%	-6.28%	16.1%	-8.72%	-15.6%
CN1CCC(=O)NCCNc2ccn3ncc(c3n2)-c2cccc(c2)C1 [OD29]	-29.5%	-3.42%	-7.55%	7.68%	7.62%	-15.9%	6.23%	26.4%	-2.83%	-1.4%	-7.58%
CN1CCc2cccc(c2)Nc2nccc(n2)N2CCCc3cc(ccc32)C1 [OD16]	-1.72%	5.95%	-13.8%	5.48%	-10%	-2.18%	-7.23%	4.7%	-4.07%	-7.16%	-6.26%

— article PMC8231556, “Inhibiting Endothelial Cell Function in Normal and Tumor Angiogenesis Using BMP Type I Receptor Macrocyclic Kinase Inhibitors” (Cancers, 2021)
